Test results taken from article PMC11434980, “Deciphering Chemical Rules for Drug Penetration into Strongyloides” (Pharmaceutics, 2024).
Several values for one entry are separate records, joined by “and”; a condition that tells them apart may be missing. Equal entries are not always repeated. Where two headings read alike, the source gives them in different places.

What was measured:
[1] = system: parasitic females of S. venezuelensis; assay: In vitro activity against adult females (movement categories); format: cell-based, Strongyloides venezuelensis; conditions: 10 µM, 50–70 worms per well
Protocol: Seven to nine days after infection, the mice or rats were euthanized and the small intestine was removed, sliced longitudinally, minced, and placed in a sedimentation cup wrapped in 8 layers of gauze in phosphate-buffered solution (PBS) for two hours at 37 °C. Parasitic females were collected from the sediment and washed twice with saline solution (NaCl 0.15 mol/L) and twice with Roswell Park Memorial Institute 1640 (RPMI 1640) (Gibco, Whaltman, MA, USA) supplemented with 10% heat-inactivated FBS, 100 µg/mL streptomycin, and 100 U/mL penicillin (Gibco, Whaltman, MA, USA) to avoid contamination during the in vitro assays. After collection, females were placed in 96-well plates with supplemented RPMI medium and kept at 37 °C. We tested three different female population densities to explore the effects on the measured activity: 1–3 females, 10–15 females, and 50–70 females per well. At 24 h after plating, the compounds were applied at 10 µM and the anti-parasitic activity was evaluated at 1, 24, 48, and 72 h after treatment based on movement for 30 s observation periods under the microscope (40×). […] All experiments were conducted in duplicate and at least three different times. […]

[2] = system: parasitic females of S. venezuelensis; assay: Staining of adult females by the dyes; format: cell-based, Strongyloides venezuelensis; conditions: 10 µM
S. venezuelensis L3s [3] = assay: Staining (uptake) of L3 larvae by the dyes; format: cell-based, Strongyloides venezuelensis
Protocol: (§1) Baerman-obtained S. venezuelensis L3s were rinsed twice with distilled water and counted, and 100 to 150 larvae were placed per well in 96-well flat-bottom culture plates. Larvae were incubated at 28 °C for 30 min to allow adaptation and treated with compounds in the range of 0.5–40 µM for 72 h at 28 °C in a humid atmosphere. Mortality was assessed as the lack of any movement detected during 1 min of observation under an inverted microscope (40×), at 24, 48, and 72 h after treatment. The ability to stain the larvae was pointed out when observed; at 72 h, larvae were collected and washed two times with distilled water and placed in a new well to remove the background color and photographed. Pictures were also taken at 24 and 48 h without cleaning the larvae so as not to interfere with the 72 h readout of the experiment. […] All experiments were conducted in triplicate and at least three different times. The antiparasitic activity of the compounds was expressed as the concentration that inhibited the motility of half of the larvae (immobilization concentration 50, IC50).

Cytotoxicity, MTT method = format: cell-based, human; conditions: human; HeLa cells, 72 h, MTT; read-out: HeLa IC50 (antiproliferative activity / cytotoxicity)
Protocol: (§2) A cytotoxicity test was performed using the HeLa (human cervical cancer) cell line according to the MTT method. Cells were from the ATCC (Manassas, VA, USA). They were cultured at 37 °C in sub-confluent conditions under a 95% humidified atmosphere and 5% CO2 in Dulbecco’s Modified Eagle Medium (DMEM) (Gibco, Whaltman, MA, USA) supplemented with 10% heat-inactivated FBS, 2 mM L-glutamine, 100 U/mL penicillin, and 100 µg/mL streptomycin. […] The antiproliferative activity was measured in triplicate after 72 h using the MTT (3-(4,5-dimethylthiazol-2-yl)-2,5-diphenyltetrazolium bromide) Cell Proliferation Kit (Roche, Boston, MA, USA), following the manufacturer’s specifications. […] The selectivity index (SI = HeLa IC50/L3 IC50) for each compound was calculated to compare the antiparasitic activity with its respective human cell cytotoxicity.

S. venezuelensis L3s [4] = assay: microbe, parasite or virus in culture; conditions: L3s
Protocol: as §1
A total of 15 dyes were tested against S. venezuelensis L3s at a 20 µM concentration. The activity was determined by the number of larvae lacking motility relative to the total number in the well after 1 min of light excitation at 24, 48, and 72 h after treatment.

[5] = system: parasitic females of S. venezuelensis; assay: In vitro activity against adult females (movement categories); format: cell-based, Strongyloides venezuelensis; conditions: 72 h
[6] = system: S. venezuelensis experimental infections of mice; assay: In vivo activity in S. venezuelensis experimental infection of mice (eggs in feces, parthenogenetic females); parameters: species or system Strongyloides venezuelensis
Protocol: All animals were infected by subcutaneous injection with 3000 […] of S. venezuelensis resuspended in PBS. […] The eggs per gram was reported. The recovery of parasite females was performed as described above. The mean was determined for the eggs per gram (EPG) of feces and parthenogenetic female counts. The color of the feces and urine in the beds was recorded.

[7] = system: parasitic females of S. venezuelensis; parameters: method as in PMID 35914566; conditions: never achieving complete absence of movement at these concentrations; read-out: IC50 against adult females (literature); cited from earlier work
[8] = system: HeLa (human cervical cancer) cell line; assay: Cytotoxicity, MTT method; format: cell-based; conditions: HeLa cells, 72 h, MTT; read-out: HeLa IC50 (antiproliferative activity / cytotoxicity)
Protocol: as §2

[9] = read-out: IC50 72 h (immobilization concentration 50 of cultured L3s), 72 h

## CN(C)c1ccc2nc3ccc(=[N+](C)C)cc-3sc2c1 [Methylene Blue]
[1]
  effect on adult females: significantly affected
  Activity against parasitic females 1 h: Healthy
  Activity against parasitic females 24 h: Affected
  Activity against parasitic females 48 h: Death
  Activity against parasitic females 72 h: Death
[2]
  Staining of parasitic females: Yes
  staining of adult females: clearly stained
[2]; time at which staining of females was seen
  Staining (Time): 24 h
S. venezuelensis L3s [3]
  Staining 72 h (L3 staining ability): Yes
S. venezuelensis L3s [3]; 72 h
  lowest staining concentration (Conc): 1 µM
Cytotoxicity, MTT method
  IC50 at 72 h: 1100 nM
S. venezuelensis L3s [4]; [9]
  IC50: 4300 ± 300 nM
[5]
  IC50: 6.02 µM

## Ivermectin
[1]
  effect on adult females: noticeable spasmodic movement
  Activity against parasitic females 1 h: Affected
  Activity against parasitic females 24 h: Affected
  Activity against parasitic females 48 h: Slightly affected
  Activity against parasitic females 72 h: Slightly affected
[6]; day 8 p.i., compared to infection group
  reduction in the number of parthenogenetic females: 91.5%
[6]; ivermectin 0.2 mg/kg oral day 5 p.i., dyes 20 mg/kg/day day 0 to 5 p.i.
  parthenogenetic females recovered per mouse at day 8 p.i.: 29 ± 12.3 and 29
[6]; ivermectin (Noromectin) single oral dose 0.2 mg/kg on day 5 p.i.
  Eggs in feces at peak, day 5 p.i.: 20,534 ± 15,961 eggs per gram
[7]
  IC50: > 229 µM
[8]
  IC50: 5.9 µM
S. venezuelensis L3s [4]; 20 µM, 72 h
  Screening 20 µM 72 h: Active
S. venezuelensis L3s [4]; read-out: IC50 24 h (immobilization concentration 50 of cultured L3s), 24 h
  IC50: 2100 ± 100 nM
S. venezuelensis L3s [4]; read-out: IC50 48 h (immobilization concentration 50 of cultured L3s), 48 h
  IC50: 1600 ± 300 nM
S. venezuelensis L3s [4]; [9]
  IC50: 1500 ± 300 nM
